Measured values reported in patent US5061794A, “Cephalosporin derivatives, and antibacterial agents” (priority 1986, dated 1991).
≈ marks a conversion by molar mass, not a printed value. Like-named read-outs stand apart in the source and are kept apart here.

How the values were obtained:
E. coli CSH(RE45) = assay: microbe, parasite or virus in culture; type: cell-based; settings: Escherichia coli, 16 h, read-out: Minimum Inhibitory Concentration (MIC), *E. coli CSH(RE45), lactamase-producing strain; 10^6 CFU/ml
Procedure, shortened: (§1)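 Agar dilution: MH agar + graded drug conc.; inoculum 10^6 CFU/ml (overnight MH broth culture, one loopful); 37° C., 16 h; MIC, μg/ml.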

E. coli CSH2 (RK1) = assay: microbe, parasite or virus in culture; type: cell-based; settings: Escherichia coli, 16 h, read-out: Minimum Inhibitory Concentration (MIC), *E. coli CSH2 (RK1), lactamase-producing strain; 10^6 CFU/ml
Procedure, shortened: as §1

E. cloacae 963 = assay: in vitro antibacterial activity, agar plate dilution method (MIC); type: cell-based; settings: 10^6 CFU/ml
Procedure, shortened: as §1

E. cloacae Nek 39 = assay: as above; type: cell-based; settings: Enterobacter cloacae, NEK39, 16 h, read-out: Minimum Inhibitory Concentration (MIC), *E. cloacae Nek 39, lactamase-producing strain; 10^6 CFU/ml
Procedure, shortened: as §1

E. coli GN5482 = assay: as above; type: cell-based; settings: Escherichia coli, GN5482, 16 h
Procedure, shortened: as §1

E. coli NIHJ JC2 = assay: as above; type: cell-based; settings: Escherichia coli, NIHJJC2, 16 h, read-out: Minimum Inhibitory Concentration (MIC), E. coli NIHJ JC2, 10^6 CFU/ml, 37° C.
Procedure, shortened: as §1

K. oxytoca GN10650 = assay: as above; type: cell-based; settings: Klebsiella oxytoca, GN10650, 16 h, read-out: Minimum Inhibitory Concentration (MIC), *K. oxytoca GN10650, lactamase-producing strain; 10^6 CFU/ml
Procedure, shortened: as §1

K. pneumoniae No. 42 = assay: as above; type: cell-based; settings: Klebsiella pneumoniae, NO.42, 16 h, read-out: Minimum Inhibitory Concentration (MIC), *K. pneumoniae No. 42, lactamase-producing strain; 10^6 CFU/ml
Procedure, shortened: as §1

K. pneumoniae PCI-602 = assay: as above; type: cell-based; settings: Klebsiella pneumoniae, PCI602, 16 h, 10^6 CFU/ml
Procedure, shortened: as §1

M. morganii GN5407 = assay: as above; type: cell-based; settings: Morganella morganii, GN5407, 16 h, read-out: Minimum Inhibitory Concentration (MIC), *M. morganii GN5407, lactamase-producing strain; 10^6 CFU/ml
Procedure, shortened: as §1

P. vulgaris HX-19 = assay: as above; type: cell-based; settings: Proteus vulgaris, HX19, 16 h, P. vulgaris HX-19; 10^6 CFU/ml; read-out: Minimum Inhibitory Concentration (MIC)
Procedure, shortened: as §1

P. vulgaris No. 33 = assay: as above; type: cell-based; settings: Proteus vulgaris, NO.33, 16 h, read-out: Minimum Inhibitory Concentration (MIC), *P. vulgaris No. 33, lactamase-producing strain; 10^6 CFU/ml
Procedure, shortened: as §1

S. aureus 209P NIHJ-JC1 = assay: as above; type: cell-based; settings: Staphylococcus aureus, 16 h
Procedure, shortened: as §1

S. marcescens IAM 1184 = assay: as above; type: cell-based; settings: Serratia marcescens, IAM1184, 16 h, read-out: Minimum Inhibitory Concentration (MIC)
Procedure, shortened: as §1

S. marcescens No. 16-2 = assay: as above; type: cell-based; settings: Serratia marcescens, NO.162, 16 h
Procedure, shortened: as §1

Ps. aeruginosa AK 109 = assay: as above; type: cell-based, Pseudomonas aeruginosa; settings: Pseudomonas aeruginosa, AK109, 16 h
Procedure, shortened: as §1

Ps. aeruginosa AKR17 = assay: as above; type: cell-based, Pseudomonas aeruginosa; settings: Pseudomonas aeruginosa, read-out: Minimum Inhibitory Concentration (MIC)
Procedure, shortened: as §1

Ps. aeruginosa IF03445 = assay: as above; type: cell-based, Pseudomonas aeruginosa; settings: Pseudomonas aeruginosa, 10^6 CFU/ml
Procedure, shortened: as §1

Ps. cepacia 23 = assay: as above; type: cell-based, Pseudomonas cepacia; settings: read-out: Minimum Inhibitory Concentration (MIC)
Procedure, shortened: as §1

A. calcoaceticus No. 4 = assay: as above; type: cell-based, Acinetobacter calcoaceticus; settings: Acinetobacter calcoaceticus, NO.4, 16 h, 10^6 CFU/ml
Procedure, shortened: as §1

[1] = Enterobacter cloacae, 963, 16 h, read-out: Minimum Inhibitory Concentration (MIC), E. cloacae 963
[2] = read-out: Minimum Inhibitory Concentration (MIC)
[3] = read-out: Minimum Inhibitory Concentration (MIC), K. pneumoniae PCI-602
[4] = read-out: Minimum Inhibitory Concentration (MIC), S. aureus 209P NIHJ-JC1, 10^6 CFU/ml, 37° C., 16 hours
[5] = S. marcescens IAM 1184, 10^6 CFU/ml
[6] = *S. marcescens No. 16-2, lactamase-producing strain, 10^6 CFU/ml, read-out: Minimum Inhibitory Concentration (MIC)
[7] = Ps. aeruginosa AK 109, 10^6 CFU/ml, read-out: Minimum Inhibitory Concentration (MIC)
[8] = 16 h, Ps. aeruginosa AKR17, 10^6 CFU/ml
[9] = IF03445, 16 h, read-out: Minimum Inhibitory Concentration (MIC), Ps. aeruginosa IF03445
[10] = Burkholderia cepacia, 16 h, Ps. cepacia 23, 10^6 CFU/ml
[11] = read-out: Minimum Inhibitory Concentration (MIC), A. calcoaceticus No. 4
[12] = read-out: Minimum Inhibitory Concentration (MIC), *E. coli GN5482, lactamase-producing strain, 10^6 CFU/ml
[13] = K. pneumoniae PCI-602, read-out: Minimum Inhibitory Concentration (MIC)

Nc1nc(/C(=N/OCc2ccc(O)c(O)c2)C(=O)N[C@@H]2C(=O)N3C(C(=O)O)=C(CSc4nnc(-c5ccc(O)c(O)c5)o4)CS[C@H]23)cs1 [Ex. 14, sodium 7β-[2-(2-aminothiazol-4-yl)-2-(3,4-dihydroxybenzyloxyimino)acetamido]-3-[5-(3,4-dihydroxyphenyl)-1,3,4-oxadiazol-2-yl]thiomethyl-3-cephem-4-carboxylate]
MIC (E. coli CSH(RE45)): 3.12 µg/mL
MIC (E. coli CSH2 (RK1)): 0.05 µg/mL
MIC (E. cloacae 963; [1]): 0.39 µg/mL
MIC (E. cloacae Nek 39): 1.56 µg/mL
MIC (E. coli GN5482; [2]): 3.12 µg/mL
MIC (E. coli NIHJ JC2): 0.39 µg/mL
MIC (K. oxytoca GN10650): 6.25 µg/mL
MIC (K. pneumoniae No. 42): 0.39 µg/mL
MIC (K. pneumoniae PCI-602; [3]): < 0.006 µg/mL
MIC (M. morganii GN5407): 0.1 µg/mL
MIC (P. vulgaris HX-19): 0.05 µg/mL
MIC (P. vulgaris No. 33): 0.2 µg/mL
MIC (S. aureus 209P NIHJ-JC1; [4]): 1.56 µg/mL
MIC (S. marcescens IAM 1184; [5]): 0.1 µg/mL
MIC (S. marcescens No. 16-2; [6]): 25 µg/mL
MIC (Ps. aeruginosa AK 109; [7]): 100 µg/mL
MIC (Ps. aeruginosa AKR17; [8]): > 100 µg/mL
MIC (Ps. aeruginosa IF03445; [9]): 12.5 µg/mL
MIC (Ps. cepacia 23; [10]): 0.1 µg/mL
MIC (A. calcoaceticus No. 4; [11]): 0.39 µg/mL

Nc1nc(/C(=N/OC(C(=O)O)c2ccc(O)c(O)c2)C(=O)N[C@@H]2C(=O)N3C(C(=O)O)=C(CSc4nnc(-c5ccc(O)c(O)c5)o4)CS[C@H]23)cs1 (some centres unmarked) [compound 16]
MIC (E. coli CSH(RE45)): 3.12 µg/mL (≈ 4.12 µM)
MIC (E. coli CSH2 (RK1)): 0.025 µg/mL (≈ 0.033 µM)
MIC (E. cloacae 963; [1]): 0.39 µg/mL (≈ 0.515 µM)
MIC (E. cloacae Nek 39): 0.78 µg/mL (≈ 1.03 µM)
MIC (E. coli GN5482; [12]): 0.78 µg/mL (≈ 1.03 µM)
MIC (E. coli NIHJ JC2): 0.2 µg/mL (≈ 0.264 µM)
MIC (K. oxytoca GN10650): 0.1 µg/mL (≈ 0.132 µM)
MIC (K. pneumoniae No. 42): 0.2 µg/mL (≈ 0.264 µM)
MIC (K. pneumoniae PCI-602; [13]): < 0.006 µg/mL
MIC (M. morganii GN5407): 0.2 µg/mL (≈ 0.264 µM)
MIC (P. vulgaris HX-19): 0.05 µg/mL (≈ 0.066 µM)
MIC (P. vulgaris No. 33): 0.78 µg/mL (≈ 1.03 µM)
MIC (S. aureus 209P NIHJ-JC1; [4]): 1.56 µg/mL (≈ 2.06 µM)
MIC (S. marcescens IAM 1184; [5]): 0.1 µg/mL (≈ 0.132 µM)
MIC (S. marcescens No. 16-2; [6]): 25 µg/mL (≈ 33 µM)
MIC (Ps. aeruginosa AK 109; read-out: Minimum Inhibitory Concentration (MIC), Ps. aeruginosa AK 109, 10^6 CFU/ml): 0.78 µg/mL (≈ 1.03 µM)
MIC (Ps. aeruginosa AKR17; AKR17, 16 h): 3.12 µg/mL (≈ 4.12 µM)
MIC (Ps. aeruginosa IF03445; [9]): 6.25 µg/mL (≈ 8.25 µM)
MIC (Ps. cepacia 23; [10]): < 0.006 µg/mL
MIC (A. calcoaceticus No. 4; [11]): 0.1 µg/mL (≈ 0.132 µM)

CO/N=C(\C(=O)N[C@@H]1C(=O)N2C(C(=O)O)=C(CSc3nnc(-c4ccc(OC(C)=O)c(OC(C)=O)c4)o3)CS[C@H]12)c1csc(N)n1 [Ex. 4, sodium 3-[5-(3,4-diacetoxyphenyl)-1,3,4-oxadiazol-2-yl]thiomethyl-7β-[2-(2-thiazol-4-yl)-2-methoxyiminoacetamido]-3-cephem-4carboxylate]
MIC (E. coli CSH(RE45)): 0.78 µg/mL
MIC (E. coli CSH2 (RK1)): < 0.006 µg/mL
MIC (E. cloacae 963; Enterobacter cloacae, 16 h, E. cloacae 963, read-out: Minimum Inhibitory Concentration (MIC)): < 0.006 µg/mL
MIC (E. cloacae Nek 39): 0.05 µg/mL
MIC (E. coli GN5482; [2]): 0.39 µg/mL
MIC (E. coli NIHJ JC2): 0.05 µg/mL
MIC (K. oxytoca GN10650): 0.39 µg/mL
MIC (K. pneumoniae No. 42): 0.025 µg/mL
MIC (K. pneumoniae PCI-602; [3]): < 0.006 µg/mL
MIC (M. morganii GN5407): 0.0125 µg/mL
MIC (P. vulgaris HX-19): < 0.006 µg/mL
MIC (P. vulgaris No. 33): 0.0125 µg/mL
MIC (S. aureus 209P NIHJ-JC1; [2]): 3.12 µg/mL
MIC (S. marcescens IAM 1184; [5]): < 0.006 µg/mL
MIC (S. marcescens No. 16-2; read-out: Minimum Inhibitory Concentration (MIC), *S. marcescens No. 16-2, lactamase-producing strain, 10^6 CFU/ml): 1.56 µg/mL
MIC (Ps. aeruginosa AK 109; [2]): 0.39 µg/mL
MIC (Ps. aeruginosa AKR17; [8]): > 100 µg/mL
MIC (Ps. aeruginosa IF03445; [9]): 0.78 µg/mL
MIC (Ps. cepacia 23; [10]): 0.1 µg/mL
MIC (A. calcoaceticus No. 4; [11]): 0.1 µg/mL

CC(C)(O/N=C(\C(=O)N[C@@H]1C(=O)N2C(C(=O)O)=C(CSc3nc(-c4ccc(O)cc4)cs3)CS[C@H]12)c1csc(N)n1)C(=O)O [compound 12, disodium 7β-[2-(2-aminothiazol-4-yl)-2-(1-carboxylate-1-methylethoxyimino)acetamido]-3-[4-(4-hydroxyphenyl)thiazol-2-yl]thiomethyl-3-cephem-4-carboxylate, reference compound]
MIC (E. coli CSH(RE45)): 1.56 µg/mL
MIC (E. coli CSH2 (RK1)): 1.56 µg/mL
MIC (E. cloacae 963; [1]): 3.12 µg/mL
MIC (E. cloacae Nek 39): 12.5 µg/mL
MIC (E. coli GN5482; [12]): 1.56 µg/mL
MIC (E. coli NIHJ JC2): 3.12 µg/mL
MIC (K. oxytoca GN10650): 1.56 µg/mL
MIC (K. pneumoniae No. 42): 3.12 µg/mL
MIC (K. pneumoniae PCI-602; [13]): 0.05 µg/mL
MIC (M. morganii GN5407): 1.56 µg/mL
MIC (P. vulgaris HX-19): < 0.006 µg/mL
MIC (P. vulgaris No. 33): 0.39 µg/mL
MIC (S. aureus 209P NIHJ-JC1; [2]): 3.12 µg/mL
MIC (S. marcescens IAM 1184): 0.78 µg/mL
MIC (S. marcescens No. 16-2; [2]): 12.5 µg/mL
MIC (Ps. aeruginosa AK 109; [7]): 25 µg/mL
MIC (Ps. aeruginosa AKR17; [8]): > 100 µg/mL
MIC (Ps. aeruginosa IF03445; 16 h, Ps. aeruginosa IF03445, read-out: Minimum Inhibitory Concentration (MIC)): 50 µg/mL
MIC (Ps. cepacia 23; Burkholderia cepacia, 23, 16 h): 3.12 µg/mL
MIC (A. calcoaceticus No. 4; A. calcoaceticus No. 4, read-out: Minimum Inhibitory Concentration (MIC)): 100 µg/mL
